# Where a SMILES comes first, the peptide text is derived from it.
# Columns and labels:
# [1] = test system: E. coli, ATTC 25922; assay: Lawn-spotting antibacterial assay (E. coli); type: cell-based, Escherichia coli; conditions: 5 μl spotted, inactive segments up to 1 mg/ml
# [2] = test system: S. typhimurium, KSU isolate 7; assay: Lawn-spotting antibacterial assay (S. typhimurium); type: cell-based, Salmonella typhimurium; conditions: 5 μl spotted, inactive segments up to 1 mg/ml
# [3] = test system: S. choleraesuis, ATCC 6962; assay: Bacterial susceptibility to neutrophil phagocytosis; type: cell-based, Salmonella choleraesuis; conditions: bacteria treated at 8 MICs
# Experimental: Plates were incubated at 37° C. for 18 hr. […] Viable bacteria were counted. Tests were repeated on three different days. […] The results were expressed as the mean ± standard deviation. […] S. choleraesuis, ATCC 6962 was used in this experiment. […] Slides were stained with LeukoStat solutions (Fisher, Pittsburgh, Pa.). […] At least 200 neutrophils were examined. […] Tests were repeated on three different days. Results were expressed as the mean±standard deviation.
# [4] = target: T1, cell-free NADPH oxidase (human neutrophil cytosol and membranes) (Homo sapiens, UniProt P14598); assay: Cell-free O2- production assay; type: biochemical
# T1 construct: 10^6 cell equivalents of human neutrophil cytosol; from tissue; host or cells: human peripheral blood neutrophils (cytosol and deoxycholate-solubilized membranes)
# T1 sequence (P14598 1-390): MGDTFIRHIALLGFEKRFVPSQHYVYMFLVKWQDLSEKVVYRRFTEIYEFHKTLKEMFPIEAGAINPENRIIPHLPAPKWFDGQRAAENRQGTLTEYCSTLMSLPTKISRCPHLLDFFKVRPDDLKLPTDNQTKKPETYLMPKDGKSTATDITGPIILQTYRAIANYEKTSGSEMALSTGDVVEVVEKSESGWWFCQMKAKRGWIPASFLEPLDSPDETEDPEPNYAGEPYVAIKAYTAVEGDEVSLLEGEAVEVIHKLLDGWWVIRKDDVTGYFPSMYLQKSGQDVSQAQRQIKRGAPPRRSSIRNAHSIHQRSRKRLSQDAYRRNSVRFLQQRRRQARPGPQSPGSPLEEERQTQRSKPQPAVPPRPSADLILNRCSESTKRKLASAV
# Experimental: Reactions (100 μl) contained 10^6 cell equivalents of human neutrophil cytosol and 5×10^5 cell equivalents of deoxycholate-solubilized membranes prepared from human peripheral blood neutrophils. […] Control reactions contained 5 μg of superoxide dismutase. Superoxide anion generation was calculated based on superoxide dismutase-inhibitable changes in cytochrome c absorbance observed at 551 nm. The reactions were followed for 20 min. after addition of arachidonic acid, with absorbance readings taken at 1-min. intervals. […] Determinations were based on reactions performed in duplicate. • (ii) Binding assays. Neutrophils were disrupted by sonication, and unbroken cells, debris, and granules were removed by centrifuigation (13,000×g for 60 min.). Cytosol fractions were prepared by centrifugation (100,000 g for 45 min.) of the supernatants to remove residual membranes. Cytosolic proteins (15 μg in reducing buffer) were separated on a 7.5% SDS PAGE gel, transferred to PVDF membranes, and probed with biotinylated PR-39 (0.3 μM) for 2 hr. Binding between PR-39 and cytosolic proteins were visualized by a chemiluminescent streptavidin alkaline phosphatase system using an Epson scanner (Torrance, Calif.) and the NIH Image program. PR-39 was labeled with biotin hydrazide at the carboxy-terminus (Pierce Chemical Co., Rockford, Ill.) and purified by gel filtration chromatography.
# [5] = target: 47 kDa neutrophil cytosol protein (Homo sapiens, UniProt P14598); assay: Ligand-blot binding assay with biotinylated PR-39, human cytosol; conditions: biotinylated PR-39 probe
# [6] = test system: 47 kDa neutrophil cytosol protein; assay: Ligand-blot binding assay with biotinylated PR-39, porcine cytosol; conditions: biotinylated PR-39 probe
# [7] = target: T2, interaction between GST-p47^phox and recombinant p22^phox (Homo sapiens, UniProt P14598); assay: Solution binding assay GST-p47phox-SH3 / recombinant p22phox; conditions: concentrations close to IC50's of the cell-free oxidase assay
# T2 construct: (GST)-p47^phox-SH3 (residues 151–284) fusion protein; made in house; host or cells: p22phox fragment: baculovirus-infected cells (used as lysate)
# Experimental: Methods for production of the glutathione S-transferase (GST)-p47^phox-SH3 (residues 151–284) fusion protein have been previously described (Leto et al., 1994). For solution binding assays, lysates of recombinant p22^phox protein (residues 127–195) from baculovirus-infected cells (2.5×10^4 cell equivalents per assay) were mixed with peptides and incubated for 1 hr. at 20° C. with 100 μl of GST-p47^phox bound to glutathione-Sepharose beads (15% suspension). Bound proteins were washed three times in 15 volumes of ice-cold 100 mM KCl/3 mM NaCl/3.5 mM MgCl2/0.15 mM phenylmethanesulfonyl fluoride/10 mM Pipes (pH 7.5), eluted with 1% SDS, and analyzed by SDS-PAGE followed by immunoblotting with mouse anti-p22^phox antibody (mAb 449; A. Verhoeven, Central Laboratories of the Netherlands Red Cross). Controls included blotting of recombinant p22^phox lysate (5×10^3 cell equivalents) alone (p22) and bound complexes detected without competing PR peptides (−).
# [8] = test system: neutrophils
compound,measurement,setting,value
CC[C@H](C)[C@H](NC(=O)[C@H](CCCNC(=N)N)NC(=O)[C@@H]1CCCN1C(=O)[C@@H]1CCCN1C(=O)[C@H](CC(C)C)NC(=O)[C@H](CCCNC(=N)N)NC(=O)[C@@H]1CCCN1C(=O)[C@@H]1CCCN1C(=O)[C@H](Cc1ccccc1)NC(=O)[C@H](Cc1ccccc1)NC(=O)[C@@H]1CCCN1C(=O)[C@@H]1CCCN1C(=O)[C@@H]1CCCN1C(=O)[C@H](CCCNC(=N)N)NC(=O)[C@@H]1CCCN1C(=O)[C@H](CCCNC(=N)N)NC(=O)[C@@H]1CCCN1C(=O)[C@H](CC(C)C)NC(=O)[C@H](Cc1ccc(O)cc1)NC(=O)[C@@H]1CCCN1C(=O)[C@@H]1CCCN1C(=O)[C@H](CCCNC(=N)N)NC(=O)[C@@H]1CCCN1C(=O)[C@H](CCCNC(=N)N)NC(=O)[C@H](CCCNC(=N)N)NC(=O)[C@@H](N)CCCNC(=N)N)C(=O)N1CCC[C@H]1C(=O)N1CCC[C@H]1C(=O)NCC(=O)N[C@@H](Cc1ccccc1)C(=O)N1CCC[C@H]1C(=O)N1CCC[C@H]1C(=O)N[C@@H](CCCNC(=N)N)C(=O)N[C@@H](Cc1ccccc1)C(=O)N1CCC[C@H]1C(=O)N1CCC[C@H]1C(=O)N[C@@H](CCCNC(=N)N)C(=O)N[C@@H](Cc1ccccc1)C(=O)N1CCC[C@H]1C(=O)O [PR-39] (H-RRRPRPPYLPRPRPPPFFPPRLPPRIPPGFPPRFPPRFP-OH; N-terminus and C-terminus assumed),antibacterial activity (clear zone on bacterial lawn),[1],had antibacterial activity
same,antibacterial activity (clear zone on bacterial lawn),[2],had antibacterial activity
same,phagocytic index of porcine neutrophils,[3],did not increase
same,IC50,[4],~2 µM
same,inhibition of O2- generation,"[4]; cell-free assay, concentrations greater than 5 μM",completely inhibited
same,binding to 47 kDa cytosolic protein,[5],bound
same,binding to 47 kDa cytosolic protein,[6],bound
same,blocking of interaction between GST-p47phox and recombinant p22phox,[7],effectively blocked
same,neutrophil viability,[8],did not affect neutrophil viability

# Reference: patent US7049396B2, “Synthetic peptides that inhibit leukocyte superoxide anion production and/or attract leukocytes” (priority 1995, dated 2006)
